The numbers were not newly measured in patent EP3639895A1, “METHOD OF REDUCING PERSPIRATION” (priority 2018, dated 2020), which cites them from elsewhere.

The series concerns Staphylococcus epidermidis. The settings on record: 80% or greater reduction in growth of inoculum over 16 to 24 hours at 37°C.

Turning to `CCO` [ethanol], the “minimum inhibitory concentration (MIC)” value was “greater than 1 mg.ml^-1”.
Consider `CC(C)=CCCC(C)=CCCC(C)=CCO` [farnesol, 3,7,11-trimethyldodeca-2,6,10-trienol], for which the “minimum inhibitory concentration (MIC)” value is “ca. 25 µg.ml^-1”.
Turning to `Oc1cc(Cl)ccc1Oc1ccc(Cl)cc1Cl` [triclosan, 2',4,4'-trichloro,2-hydroxy-diphenyl ether], the “minimum inhibitory concentration (MIC)” value is 0.01 to 10 µg/mL.
